In paper PMC8344021, “Discovery of Small Molecule Bak Activator for Lung Cancer Therapy” (Theranostics, 2021):

Test system: other Bcl2 family members (Bax, Bcl2, Bcl-XL, Bcl-w and Mcl-1)
Assay: Competitive fluorescence polarization (FP) assay, other Bcl2 family members
Assay type: binding, human
Text: To confirm the binding of BKA-073 with Bak, we first conducted a competitive fluorescence polarization (FP) assay using purified human Bak protein, fluorescent Bak BH3 domain peptide, and BKA-073 as described, [37]-[40]. […] There are multiple amino acid differences in the BH3 domains between Bak and other Bcl2 family members, which helps to explain why BKA-073 only binds to Bak but not to other Bcl2 family members (i.e. Bax, Bcl2, Bcl-XL, Bcl-w and Mcl-1). In addition to the FP assay, isothermal titration calorimetry (ITC) was also employed to measure Bak/BKA-073 binding. […] In addition to human Bak/BKA-073 binding, we measured mouse Bak/BKA-073 binding using ITC.
(1 x 10^5 cells) was transferred to a 5 ml culture tube, followed by the addition of 5 μl of FITC Annexin V and 5 μl propidium iodide (PI). […] Samples were analyzed by flow cytometry (BD FACSCantoTMII, BD Biosciences, San Jose, CA). ∆% cell death was calculated with the formula: (% cell death treated - % cell death non-treated) as described […]
Fluorescence polarization (FP) assay
Fluorescence polarization assay was carried out as described previously. […] The FP values (in millipolarization units) were measured using a fluorescence microplate reader at 485/530 nm (Gemini XPS, Molecular Devices). Data analysis and inhibit ory constant (Ki) value was determined by GraphPad prism software as described. […]

COc1ccc2nc3ccccc3c(NCCNCC(C)O)c2c1 (stereo not shown) [BKA-073]
binding affinity with other Bcl2 family members: very low binding affinity
